# Calls of active or inactive are those of the source. No cut-off for these calls is given here.
# How the values were obtained:
# Calf thymus DNA [1] = assay: Binding affinity to calf thymus DNA in citric acid buffer at pH 5 by fluorescence titration assay relative to control; assay type: nucleic-acid assay; conditions: Bos taurus
# Nucleic Acid [2] = assay: Binding affinity to poly A-poly U RNA in citric acid buffer at pH 5 by fluorescence titration assay; assay type: nucleic-acid assay
# Nucleic Acid [3] = assay: Binding affinity to poly G-poly C RNA in citric acid buffer at pH 5 by fluorescence titration assay; assay type: nucleic-acid assay
# Calf thymus DNA [4] = assay: Binding affinity to calf thymus DNA in sodium cacodylate buffer at pH 7 by fluorescence titration assay relative to control; assay type: nucleic-acid assay; conditions: Bos taurus
# Nucleic Acid [5] = assay: Binding affinity to poly dA-poly dT RNA in sodium cacodylate buffer at pH 7 by fluorescence titration assay relative to control; assay type: nucleic-acid assay
# Nucleic Acid [6] = assay: Binding affinity to poly A-poly U RNA in sodium cacodylate buffer at pH 7 by fluorescence titration assay relative to control; assay type: nucleic-acid assay
# Calf thymus DNA [7] = assay: Binding affinity to calf thymus DNA in citric acid buffer at pH 5 by UV-v titration assay; assay type: nucleic-acid assay; conditions: Bos taurus
# Nucleic Acid [8] = assay: Binding affinity to poly A-poly U RNA in citric acid buffer at pH 5 by UV-v titration assay; assay type: nucleic-acid assay
# Nucleic Acid [9] = assay: Binding affinity to poly G-poly C RNA in citric acid buffer at pH 5 by UV-v titration assay; assay type: nucleic-acid assay
# Nucleic Acid [10] = assay: Binding affinity to […] assessed as change in melting temperature at compound to DNA molar ratio of 0.3 at pH 5 by thermal denaturation assay; assay type: nucleic-acid assay
# Nucleic Acid [11] = assay: Binding affinity to poly A-poly U RNA assessed as change in melting temperature at compound to DNA molar ratio of 0.2 at pH 7 by thermal denaturation assay; assay type: nucleic-acid assay
# Nucleic Acid [12] = assay: Binding affinity to poly A-poly U RNA assessed as change in melting temperature at compound to DNA molar ratio of 0.3 at pH 7 by thermal denaturation assay; assay type: nucleic-acid assay
# Calf thymus DNA [13] = assay: Binding affinity to calf thymus DNA at compound to DNA molar ratio of 0.1 to 0.5 at pH 5 by circular dichroism; assay type: nucleic-acid assay; conditions: Bos taurus
# Nucleic Acid [14] = assay: Binding affinity to poly A-poly U RNA at compound to DNA molar ratio of 0.1 to 0.4 at pH 5 by circular dichroism; assay type: nucleic-acid assay
# MIA PaCa-2 [15] = assay: Cytotoxicity against human MIAPaCa2 cells after 72 hrs by MTT assay; assay type: functional, cell-based
# Caco-2 = assay: Cytotoxicity against human Caco-2 cells at 10 to 100 uM after 72 hrs by MTT assay; assay type: functional, cell-based
# MIA PaCa-2 [16] = assay: Cytotoxicity against human MIAPaCa2 cells at 10 to 100 uM after 72 hrs by MTT assay; assay type: functional, cell-based
# HEp-2 = assay: Cytotoxicity against human Hep2 cells at 10 to 100 uM after 72 hrs by MTT assay; assay type: functional, cell-based
# HeLa [17] = assay: Cytotoxicity against human HeLa cells at 10 to 100 uM after 72 hrs by MTT assay; assay type: functional, cell-based
# HT-29 [18] = assay: Cytotoxicity against human HT-29 cells at 10 to 100 uM after 72 hrs by MTT assay; assay type: functional, cell-based
# HT-29 [19] = assay: Cytotoxicity against human HT-29 cells at 0.1 to 100 uM after 72 hrs by MTT assay; assay type: functional, cell-based
# HeLa [20] = assay: Drug uptake in human HeLa cells at 1 mM after 10 mins using DAPI staining by fluorescence microscopy analysis; assay type: ADME, cell-based; conditions: 1000 µM
# MIA PaCa-2 [21] = assay: Drug uptake in human MIAPaCa2 cells at 1 mM after 10 mins using DAPI staining by fluorescence microscopy analysis; assay type: ADME, cell-based; conditions: mia paca-2, 10 min, 1000 µM
# Nucleic Acid [22] = assay: Binding affinity to AMP in sodium cacodylate buffer at pH 7 by fluorescence titration assay relative to control; assay type: nucleic-acid assay
# Calf thymus DNA [23] = assay: Binding affinity to calf thymus DNA assessed as melting temperature at compound to DNA molar ratio of 0.2 at pH 5 by thermal denaturation assay; assay type: nucleic-acid assay; conditions: Bos taurus
# Nucleic Acid [24] = assay: Binding affinity to […] assessed as melting temperature at compound to DNA molar ratio of 0.2 at pH 5 by thermal denaturation assay; assay type: nucleic-acid assay
# Nucleic Acid [25] = assay: Binding affinity to poly A-poly U RNA assessed as biphasic transitions of melting temperature at compound to DNA molar ratio of 0.2 at pH 5 by thermal denaturation assay; assay type: nucleic-acid assay
# Nucleic Acid [26] = assay: Binding affinity to poly A-poly U RNA in sodium cacodylate buffer at pH 7 by UV-v titration assay; assay type: nucleic-acid assay
# Nucleic Acid [27] = assay: Binding affinity to poly G-poly C RNA in sodium cacodylate buffer at pH 7 by UV-v titration assay; assay type: nucleic-acid assay
# Nucleic Acid [28] = assay: Binding affinity to poly A-poly U RNA assessed as change in melting temperature at compound to DNA molar ratio of 0.3 at pH 5 by thermal denaturation assay; assay type: nucleic-acid assay
# Calf thymus DNA [29] = assay: Binding affinity to calf thymus DNA at compound to DNA molar ratio of 0.1 to 0.5 at pH 7 by circular dichroism; assay type: nucleic-acid assay; conditions: Bos taurus
# Nucleic Acid [30] = assay: Binding affinity to poly A-poly U RNA assessed as melting temperature at compound to DNA molar ratio of 0.3 at pH 5 by thermal denaturation assay; assay type: nucleic-acid assay
# Nucleic Acid [31] = assay: Binding affinity to poly A-poly U RNA assessed as biphasic transitions of change in melting temperature at compound to DNA molar ratio of 0.3 at pH 5 by thermal denaturation assay; assay type: nucleic-acid assay
# Nucleic Acid [32] = assay: Binding affinity to poly A-poly U RNA assessed as biphasic transitions of melting temperature at compound to DNA molar ratio of 0.3 at pH 5 by thermal denaturation assay; assay type: nucleic-acid assay
# Nucleic Acid [33] = assay: Binding affinity to […] in citric acid buffer at pH 5 by UV-v titration assay; assay type: nucleic-acid assay
Compound,RFU (Calf thymus DNA [1]),log Ks (Nucleic Acid [2]),log Ks (Nucleic Acid [3]),RFU (Calf thymus DNA [4]),RFU (Nucleic Acid [5]),RFU (Nucleic Acid [6]),log Ks (Calf thymus DNA [7]),log Ks (Nucleic Acid [8]),ΔTm (Nucleic Acid [10]) [°C],ΔTm (Nucleic Acid [11]) [°C],ΔTm (Nucleic Acid [12]) [°C],Activity (Calf thymus DNA [13]),Activity (Nucleic Acid [14]),Activity (MIA PaCa-2 [15]),Activity (HT-29 [19]),RFU (Nucleic Acid [22]),Tm (Calf thymus DNA [23]) [°C],Tm (Nucleic Acid [24]) [°C],Tm (Nucleic Acid [25]) [°C],log Ks (Nucleic Acid [27]),further results
Cc1c2cc(NC(=O)NCCCCCCNC(=O)Nc3ccc4c(c3)c(C)[n+](C)c3ccccc43)ccc2c2ccccc2[n+]1C.O=S(=O)([O-])O.O=S(=O)([O-])O,2.7,5.6,5.5,1.8,10.7,15.8,5.4,4.5,10.4,0,0,Active,Active,Dose-dependent effect,Active,-47.8,74.6,59.7,31.4,,log Ks (Nucleic Acid [9]): 5.1; Activity (Caco-2): inactive; Activity (MIA PaCa-2 [16]): inactive; Activity (HEp-2): inactive; Activity (HeLa [17]): inactive; Activity (HT-29 [18]): inactive; Drug uptake (HeLa [20]): Active; Drug uptake (MIA PaCa-2 [21]): Active
Cc1c2cc(NC(=O)NCCCCCCCCCNC(=O)Nc3ccc4c(c3)c(C)[n+](C)c3ccccc43)ccc2c2ccccc2[n+]1C.O=S(=O)([O-])O.O=S(=O)([O-])O,0.3,5.4,5.2,0.7,3.9,4,,5.4,7.7,2.3,2.1,Active,,Dose-dependent effect,inactive,-55,73.8,57.5,31,5.8,log Ks (Nucleic Acid [26]): 5.1; ΔTm (Nucleic Acid [28]): 1.9 °C; Activity (Calf thymus DNA [29]): Active; Tm (Nucleic Acid [30]): 82.6 °C; ΔTm (Nucleic Acid [31]): -1.6 °C; Tm (Nucleic Acid [32]): 31.1 °C
Cc1c2cc(NC(=O)NCCNC(=O)Nc3ccc4c(c3)c(C)[n+](C)c3ccccc43)ccc2c2ccccc2[n+]1C.O=S(=O)([O-])O.O=S(=O)([O-])O,2.6,6.6,5.5,3,15,9.2,6,,10.7,0,0,Active,Active,Dose-dependent effect,Active,-45.2,72.7,59.4,30.7,5.2,log Ks (Nucleic Acid [33]): 5.2; ΔTm (Nucleic Acid [28]): 1.9 °C; Tm (Nucleic Acid [30]): 83.8 °C; ΔTm (Nucleic Acid [31]): -0.4 °C; Tm (Nucleic Acid [32]): 31.1 °C

# — ChEMBL document CHEMBL1208667, “Permanent positive charge strongly influences DNA/RNA binding and antiproliferative activity of urea-phenanthridinium conjugates” (Eur J Med Chem, 2010)
